Experimental data from patent publication US10966944B2, “[2.2.2] bicyclic derivatives and methods of use” (ASE PHARMACEUTICALS, LLC, priority 2008, dated 2021).

Columns and labels:
epilepsy patients = assay: Clinical trials in epilepsy patients and volunteers (Example 1); assay type: in vivo, human
Procedure: Clinical trials involving administration of sodium bicyclo-[2.2.2]-octane-2-carboxylate were performed on 30 epilepsy patients and 20 volunteers in two clinics in Moscow. […] Classification of the patients was done in accordance with International Classification of Epilepsy and Epileptic Syndromes (ILAE, 1989). Some of the subjects also suffered from addictive disorders (alcoholism, drug addiction). In 73% of trial subjects, sodium bicyclo-[2.2.2]-octane-2-carboxylate administration reduced the frequency, intensity, and duration of epileptic seizures. […] It normalized cerebral blood circulation and increased the sympathetic tonus of the patients. […] The following were used to assess trial subjects: • Visual checkup • EEG • CT • MRT • Clinical blood and urine tests • general blood test • biochemical blood test • general urine tests • Inspection and checkup of organs and systems: • respiratory system • cardiovascular system • alimentary system • urinary system • Neurological status • Concurrent disease status.

adult epilepsy patients [1] = assay: Randomized open-controlled study, add-on to base therapy: frequency and severity of epileptic seizures (Example 2); assay type: in vivo, human
Procedure: The study of sodium bicyclo-[2.2.2]-octane-2-carboxylate as an addition to a base therapy was conducted in the group of adult epilepsy patients. Sodium bicyclo-[2.2.2]-octane-2-carboxylate was administered during 10 weeks. Thirty patients in both hospitals (twenty-six males and four females) were included in the studies.
Base therapy was administered in accordance with recommendations by the International Anti-epileptic League (1989). During the study, the patients continued to receive pathogenetic treatment. Medication names, doses and the duration of any treatment were registered in patients' medical records (MR). The patients continued receiving their standard prescribed medications and were not switched to a different drug at any time during the study.
During the introductory period of 7 to 10 days, the patients were examined; base therapy scheme was being finalized and was described in a standard protocol. In accordance with the protocol, the patients were screened for inclusion/exclusion factors. Only those patients who signed an informed consent and who satisfied the inclusion criteria were included in the study. The frequency of epileptic seizures in patients receiving pre-sodium bicyclo-[2.2.2]-octane-2-carboxylate base therapy varied from 1 to 16 times a month.
(§1) At the start of sodium bicyclo-[2.2.2]-octane-2-carboxylate protocol, all patients began receiving sodium bicyclo-[2.2.2]-octane-2-carboxylate at 100 mg four times a day. If the clinical effect was absent by day 14, the dose of Sodium bicyclo-[2.2.2]-octane-2-carboxylate was increased to 150 mg. Patients with various forms of epilepsy were selected for the study (Table 2).
(§2) Main study parameters included efficiency criteria such as the number and severity of seizures, and safety criteria such as the clinical and laboratory tests. The complete examination included: • 1) Neurological exams. • 2) Computer-assisted tomography (CAT scan). • 3) MRI of the brain. • 4) General blood work: baseline before Sodium bicyclo-[2.2.2]-octane-2-carboxylate treatment, 2 weeks and 1.5 months after the beginning of the treatment. • 5) General urine analysis. • 6) Blood biochemistry. • 7) ECG. • 8) EEG and pharmaco-EEG. Physical exams and testing results were registered by a research physician in the MRs and were analyzed by statistical methods.
To evaluate treatment efficacy, the frequency and severity of epileptic seizures were monitored. […] In the majority of patients suffering from partial epilepsy, seizures became less severe and occurred less frequently. The patients reported feeling better, with improvement of mood, work efficiency, and sleep quality. […]

adult epilepsy patients [2] = assay: General blood work before and after treatment (Example 2, safety); assay type: in vivo, human
Procedure: as §1, §2
(§3) The effective therapeutic dose was determined as 400 mg per day in 60% of the patients, and 600 mg per day in the remaining 40%. Safety aspects of sodium bicyclo-[2.2.2]-octane-2-carboxylate were evaluated during the treatment and after the treatment by monitoring the clinical and laboratory parameters.
(§4) Before-before Sodium bicyclo-[2.2.2]-octane-2-carboxylate treatment After-after Sodium bicyclo-[2.2.2]-octane-2-carboxylate treatment. No statistically significant differences in any other parameters before and after Sodium bicyclo-[2.2.2]-octane-2-carboxylate treatment were detected.

adult epilepsy patients [3] = assay: Blood chemistry before and after treatment (Example 2, safety); assay type: in vivo, human
Procedure: as §1, §2, §3, §4

adult epilepsy patients [4] = assay: EEG parameters before and after treatment (Example 2); assay type: in vivo, human; conditions: averaged, after treatment (before treatment: 197.7)
Source text: as §2

adult epilepsy patients [5] = assay: ECG recording during the study (Example 2); assay type: in vivo, human; conditions: patients with extrasystolia and tachycardia
Source text: as §2, with “methods. ECGs were recorded before the beginning of the treatment, during the course of the study (on a regular basis), and immediately after the study had been completed. […] In the patients with extrasystolia and tachycardia, extrasystolia was not observed by the end of the first treatment month, while the heart rate decreased on average from 88/min to 80/min. In the patients with bradycardia, sinus rhythm dropped further.” for “methods.”

adult epilepsy patients [6] = assay: Dysphoria and general condition in the study patients (Example 2); assay type: in vivo, human
Procedure: During each scheduled visit and at the completion of the study, complete physical examination of each patient was performed. Physical exams included patients' general condition, examinations of the skin, ENT, lungs, heart, stomach, lymph nodes, central nervous system, etc. Valid data obtained before beginning of Sodium bicyclo-[2.2.2]-octane-2-carboxylate treatment was entered in appropriate sections of MRs. The data collected during the treatment (including the observed side effects) was entered in the Brief Description sections of the MRs. […] This effect correlated with disappearance of alcohol addiction.

[7] = average, after treatment (before: 4.75)
[8] = deviation after vs before treatment

O=C([O-])C1CC2CCC1CC2.[Na+] (centres unmarked) [Sodium bicyclo-[2.2.2]-octane-2-carboxylate]
trial subjects with reduced frequency, intensity, and duration of epileptic seizures (epilepsy patients; 30 epilepsy patients and 20 volunteers, two clinics): 73%
side effects in human clinical trials (epilepsy patients; human clinical trials): without significant negative side effects
effective therapeutic dose (adult epilepsy patients [1]; in 60% of the patients): 400 mg per day
effective therapeutic dose (adult epilepsy patients [1]; in the remaining 40% of the patients): 600 mg per day
patients with decrease in seizure frequency (number) (adult epilepsy patients [1]; of 30 patients): 22 patients
patients with decrease in seizure frequency (percent) (adult epilepsy patients [1]; of 30 patients): 73.3%
Color Index, After (adult epilepsy patients [2]; average, after treatment (before: 0.895)): 0.928
Eosinophiles (%), After (adult epilepsy patients [2]; average, after treatment (before: 2.53)): 2.53%
Monocytes (%), After (adult epilepsy patients [2]; average, after treatment (before: 3.0)): 2.8%
Erythrocytes, After (adult epilepsy patients [2]; [7]): 4.79 10^12/L
ESR, After (adult epilepsy patients [2]; average, after treatment (before: 7.3)): 5.2 mm
Leukocytes, After (adult epilepsy patients [2]; average, after treatment (before: 7.9)): 7.47 10^9/L
Lymphocytes (%), After (adult epilepsy patients [2]; average, after treatment (before: 20.9)): 21.1%
Neutrophiles (%), After (adult epilepsy patients [2]; average, after treatment (before: 72.7)): 71.2%
Hemoglobin, After (adult epilepsy patients [2]; average, after treatment (before: 143.4), in g/L (unit assumed)): 140.13
Platelets, After (adult epilepsy patients [2]; average, after treatment (before: 205.5), in 10^9/L (unit assumed)): 230.3
Color Index, % dev. (adult epilepsy patients [2]; [8]): 3.7%
ESR, % dev. (adult epilepsy patients [2]; [8]): 28.8%
Eosinophiles, % dev. (adult epilepsy patients [2]; [8]): 0%
Erythrocytes, % dev. (adult epilepsy patients [2]; [8]): 1.48%
Hemoglobin, % dev. (adult epilepsy patients [2]; [8]): 2.3%
Leukocytes, % dev. (adult epilepsy patients [2]; [8]): 5.95%
Lymphocytes, % dev. (adult epilepsy patients [2]; [8]): 0.94%
Monocytes, % dev. (adult epilepsy patients [2]; [8]): 6.7%
Neutrophiles, % dev. (adult epilepsy patients [2]; [8]): 2.06%
Platelets, % dev. (adult epilepsy patients [2]; [8]): 12.07%
effects on the blood counts and blood biochemistry (adult epilepsy patients [2]; during and after the treatment): No unfavorable effects
changes in blood and urine tests (adult epilepsy patients [2]; summary of the study): did not cause any changes
Glucose, After (adult epilepsy patients [3]; [7]): 4.48 mmol/L
General bilirubin, After (adult epilepsy patients [3]; average, after treatment (before: 14.3)): 11.5 µmol/L
ACT, After (adult epilepsy patients [3]; average, after treatment (before: 45.1)): 24.6
ALT, After (adult epilepsy patients [3]; average, after treatment (before: 46.2)): 21.5
Creatinin, after (adult epilepsy patients [3]; average, after treatment (before: 70.5)): 69.4 µmol/L
General Protein, After (adult epilepsy patients [3]; average, after treatment (before: 75.5)): 77.4 g/L
ACT, % dev. (adult epilepsy patients [3]; [8]): 45.4%
ALT, % dev. (adult epilepsy patients [3]; [8]): 53.5%
Creatinin, % dev. (adult epilepsy patients [3]; [8]): 1.6%
General Protein, % dev. (adult epilepsy patients [3]; [8]): 2.5%
General bilirubin, % dev. (adult epilepsy patients [3]; [8]): 19.6%
Glucose, % dev. (adult epilepsy patients [3]; [8]): 5.7%
EEG parameters (focus of pathological activity) (adult epilepsy patients [4]): 151.5 μV
heart rate (adult epilepsy patients [5]; average, decreased from 88/min): 80 min⁻¹
extrasystolia (adult epilepsy patients [5]; by the end of the first treatment month): not observed
patients' behavior and the functions of major organs and systems (adult epilepsy patients [6]; during 10 weeks of treatment): not negatively affected
cases with effective treatment of dysphoria or dysphoria-like conditions (adult epilepsy patients [6]; of all cases): 93.3%
dysphoria and paroxysmal activity on EEG (adult epilepsy patients [6]; patients who suffered from alcohol addiction in the past, after 1.5 month of treatment): disappeared or decreased
melting point: 84 to 86 °C
